Tests used:
GRP-R [1] = biological target: T1, GRP-R (Homo sapiens, UniProt P30550); assay: Binding of 177Lu-DOTA-gluBBN in PC-3 cells (dissociation constant); conditions: 0.01 to 100 nM, 37° C., 2 hours
T1 construct: PC-3 cells were used as a human prostate cancer cell line; host or cells: PC-3 human prostate cancer cells
Method: (§1) In order to confirm in vitro targeting efficiency of DOTA-gluBBN and 177Lu-DOTA-gluBBN prepared according to Examples 1 and 2 to prostate cancer cells, PC-3 cells were used as a human prostate cancer cell line. The PC-3 cells corresponding to the human prostate cancer cell line were purchased from Korean cell line bank. The PC-3 cells were cultured in a Roswell Park Memorial Institute (RPMI) 1640 medium containing 10% fetal bovine serum (FBS) at 37° C. in 5% CO2 atmosphere.
(§2) The cells were cultured in a disposable flask for cell culture, and at the time of an experiment, the cells were cultured in a 96-well or 12-well cell culture plate according to an experimental method and then used.
In addition, 177Lu-DOTA-gluBBN (0.01 to 100 nM) prepared according to Example 2 was reacted, respectively, in the PC-3 cells. After culturing a cell plate at 37° C. for 2 hours, a reaction solution was recovered. After the cells were washed with PBS and recovered by 1N NaOH, radioactivity of each solution was measured using a gamma counter.

[2] = In vivo distribution in PC-3 xenografted tumor mouse model; conditions: male, Balb/c nude, tumor (PC-3 xenograft), total radioactivity, prostate cancer cells (tumor), 1 hour after intravenous injection, 370 KBq, read-out: tumor uptake, percentage of the injected dose per unit weight
Method: In order to evaluate in vivo targeting efficiency of 177Lu-DOTA-gluBBN, in vivo distribution of 177Lu-DOTA-gluBBN in a tumor mouse model obtained by xenografting PC-3 cells, which are human prostate cancer cells, into a Balb/c nude mouse (Nara biotech, Korea) was evaluated. The tumor-bearing mouse model was prepared by subcutaneously injecting the PC-3 cells (1×10^7) into a right upper end of the shoulder of a male Balb/c nude mouse (7 weeks old) and allowing tumor to grow for 3 weeks. 177Lu-DOTA-gluBBN (370 KBq) was intravenously injected into a tail vein of the tumor mouse model. After […] of injection, the experimental animal was euthanized. Then, after the blood, the liver, the kidney, the spleen, the heart, the large intestine, the small intestine, the lung, the stomach, the pancreas, and the like, in addition to the tumor were extracted, weights of the organs were measured, and radioactivity of each organ was measured. 177Lu-DOTA-gluBBN uptake in each organ was expressed as percentage of the injected dose per unit weight (% ID/g). It was confirmed that 177Lu-DOTA-gluBBN targeted prostate cancer cells at 1 hour after intravenous injection with high efficiency (12.42±2.15% ID/g).

prostate cancer = assay: Comparison of in vivo targeting efficiency to prostate cancer with comparative material 177Lu-AMBA; conditions: versus comparative material 177Lu-AMBA
From the text: As a material having prostate cancer targeting mechanism similar to that of the bombesin derivatives (177Lu-DOTA-gluBBN) using the bombesin derivatives, which is the GRP-R agonist, prepared according to Example 2, 177Lu-AMBA (comparative material (J. Nucl. Med. 47(7):1144-1152 (Non-Patient Document)), see compound in FIG. 1) is a prostate cancer targeting diagnosis and treatment material of which excellent targeting efficiency is recognized, such that currently a phase 1 clinical trial was terminated.

[3] = In vivo physiological toxicity (body weight); design: species or system mouse; conditions: therapeutic dose, early stage of administration, measured twice a week
Method: (§3) In order to confirm a toxicological effect by therapeutic dose, a body weight and histological states of organs were evaluated. The body weight was measured twice a week, and after euthanizing the animal model at the timing at which evaluation was terminated, spleen and kidney tissue was collected and H&E stained.

[4] = In vivo histological toxicity (spleen and kidney, H&E); design: species or system Balb/c nude mouse; conditions: therapeutic dose, H&E stained, versus normal and control group
Method: as §3

GRP-R [5] = biological target: T1, GRP-R; assay: Competitive binding with 125I-[Tyr4]-bombesin in PC-3 cells; conditions: competition with 125I-[Tyr4]-bombesin (20,000 CPM), 37° C., 1 hour
Method: as §1, §2
DOTA-gluBBN (10^−6 to 10^−12M) prepared according to Example 1 was co-cultured with 125I-[Tyr^4]-bombesin (20,000 CPM), respectively, in the PC-3 cells, which are human prostate cancer cells, to thereby carry out a competitive reaction. After culturing a cell plate at 37° C. for 1 hour, a reaction solution was recovered. After the cells were washed with PBS and recovered by 1N NaOH, radioactivity of each solution was measured using a gamma counter.

T1 sequence (P30550 whole entry): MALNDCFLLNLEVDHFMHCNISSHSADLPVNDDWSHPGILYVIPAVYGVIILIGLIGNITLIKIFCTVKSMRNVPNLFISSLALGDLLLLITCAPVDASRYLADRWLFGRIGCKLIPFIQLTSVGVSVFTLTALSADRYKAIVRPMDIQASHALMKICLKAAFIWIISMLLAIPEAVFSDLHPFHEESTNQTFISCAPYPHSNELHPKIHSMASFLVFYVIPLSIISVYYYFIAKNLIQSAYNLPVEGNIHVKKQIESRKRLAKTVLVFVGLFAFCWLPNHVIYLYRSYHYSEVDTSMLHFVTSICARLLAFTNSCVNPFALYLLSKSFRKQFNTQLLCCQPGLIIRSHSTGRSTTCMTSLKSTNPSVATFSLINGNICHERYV

Structure (SMILES) | Kd (GRP-R [1]) [nM] | tissue uptake at 1 h [2] [%ID/g] | removal in the blood versus 177Lu-AMBA (prostate cancer) | body weight change [3] | histological toxicity in spleen and kidney [4] | IC50 (GRP-R [5]) [nM]
CSCC[C@H](NC(=O)[C@H](CC(C)C)NC(=O)[C@H](Cc1c[nH]cn1)NC(=O)CNC(=O)[C@@H](NC(=O)[C@H](C)NC(=O)[C@H](Cc1c[nH]c2ccccc12)NC(=O)[C@H](CCC(N)=O)NC(=O)c1ccc(NC(=O)[C@H](CCCCNC(=O)CO[C@@H]2[C@@H](O)[C@@H](O)O[C@H](CO)[C@H]2O)NC(=O)CN2CCN(CC(=O)O)CCN(CC(=O)O)CCN(CC(=O)O)CC2)cc1)C(C)C)C(N)=O [177Lu-DOTA-gluBBN, metal not drawn] | ~0.63 | 12.4 ± 2.15 | more rapidly removed in the blood | there was not a great change in the body weight | not observed | –
CSCC[C@H](NC(=O)[C@H](CC(C)C)NC(=O)[C@H](Cc1c[nH]cn1)NC(=O)CNC(=O)[C@@H](NC(=O)[C@H](C)NC(=O)[C@H](Cc1c[nH]c2ccccc12)NC(=O)[C@H](CCC(N)=O)NC(=O)c1ccc(NC(=O)[C@H](CCCCNC(=O)CO[C@@H]2[C@@H](O)[C@@H](O)O[C@H](CO)[C@H]2O)NC(=O)CN2CCN(CC(=O)O)CCN(CC(=O)O)CCN(CC(=O)O)CC2)cc1)C(C)C)C(N)=O [DOTA-gluBBN] | – | – | – | – | – | 4.67

Reference: patent US9827338B2, “GRP-R agonistic 177-lutetium-labeled bombesin derivatives for diagnosis and treatment of prostate cancer” (KOREA ATOMIC ENERGY RESEARCH INSTITUTE, priority 2014, dated 2017)
